The source made the active and inactive calls.
What was measured:
Fatty acid synthase [1] = target: T1, Fatty acid synthase (Homo sapiens, UniProt P49327); test: inhibition of human FAS-TE enzyme activity – biochemical, kinetic fluorescence intensity, dose response (AID 624326); type: functional;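 further: rate of fluorescence rise from hydrolysis of a fluorogenic O-methyl fluorescein ester substrate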
Fatty acid synthase [2] = target: T1, Fatty acid synthase; test: inhibition of human FAS-TE enzyme activity – biochemical, endpoint fluorescence intensity, uHTS hits, dose response (AID 624327); type: functional;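 further: fluorescence from hydrolysis of an O-methyl fluorescein acyl ester substrate by the enzyme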
[3] = target: Heat shock protein HSP 90-alpha (Homo sapiens, UniProt P07900); type: functional, organism-based
[4] = target: T2, High affinity choline transporter 1 (Homo sapiens, UniProt Q9GZV3); test: human choline transporter blockers, potency – cell-based, 5-point CRC, membrane potential dye, dose response (AID 504840); type: functional
T2 sequence (Q9GZV3 whole entry): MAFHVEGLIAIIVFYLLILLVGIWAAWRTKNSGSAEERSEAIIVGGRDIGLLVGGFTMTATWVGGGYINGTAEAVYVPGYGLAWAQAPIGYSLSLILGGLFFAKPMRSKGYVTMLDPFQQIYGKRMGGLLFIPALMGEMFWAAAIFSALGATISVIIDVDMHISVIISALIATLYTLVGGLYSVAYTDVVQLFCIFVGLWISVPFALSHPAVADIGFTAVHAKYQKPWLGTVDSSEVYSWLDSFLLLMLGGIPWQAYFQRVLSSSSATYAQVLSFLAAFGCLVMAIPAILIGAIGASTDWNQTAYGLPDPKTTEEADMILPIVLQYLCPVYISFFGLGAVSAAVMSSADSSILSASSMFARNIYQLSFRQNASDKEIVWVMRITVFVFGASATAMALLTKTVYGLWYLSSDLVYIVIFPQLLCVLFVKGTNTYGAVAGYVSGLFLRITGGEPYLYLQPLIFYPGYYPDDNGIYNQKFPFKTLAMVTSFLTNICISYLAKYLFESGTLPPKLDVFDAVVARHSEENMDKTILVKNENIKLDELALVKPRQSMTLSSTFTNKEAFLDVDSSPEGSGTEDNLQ

[5] = target: T3, Long-chain-fatty-acid--AMP ligase FadD28 (Mycobacterium tuberculosis, UniProt P9WQ59); test: Fluorescence polarization aasay to screen for inhibitors that compete for the binding of FadD28 to a bisubstrate Measured in Biochemical System Using Plate Reader - 2147-01_Inhibitor_Dose_CherryPick_Activity.; type: functional, Mycobacterium tuberculosis H37Rv
T3 sequence (P9WQ59 whole entry): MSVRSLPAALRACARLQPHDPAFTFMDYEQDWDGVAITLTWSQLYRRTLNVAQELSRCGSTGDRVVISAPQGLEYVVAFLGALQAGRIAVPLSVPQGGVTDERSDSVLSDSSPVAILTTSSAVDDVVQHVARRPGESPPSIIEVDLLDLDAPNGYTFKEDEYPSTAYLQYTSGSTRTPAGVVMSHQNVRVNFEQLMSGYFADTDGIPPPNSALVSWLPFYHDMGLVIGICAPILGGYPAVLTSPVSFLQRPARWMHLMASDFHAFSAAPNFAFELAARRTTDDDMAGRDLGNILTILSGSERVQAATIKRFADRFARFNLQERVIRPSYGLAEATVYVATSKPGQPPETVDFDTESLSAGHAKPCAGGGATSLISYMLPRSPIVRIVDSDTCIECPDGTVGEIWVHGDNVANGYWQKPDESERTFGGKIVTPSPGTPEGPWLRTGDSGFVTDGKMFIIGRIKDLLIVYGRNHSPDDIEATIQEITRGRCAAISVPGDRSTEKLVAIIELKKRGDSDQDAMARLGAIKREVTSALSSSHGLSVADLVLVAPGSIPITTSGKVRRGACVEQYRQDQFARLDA

[6] = viability of HCT116 lacking mutant beta-catenin – cell-based, human colon tumor, dose response (AID 1045); type: functional;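 further: HCT116 colon tumor cells with beta catenin knocked out; cells exposed to compound for 60 hours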
[7] = viability of PTEN-deleted HCT116 cells – cell-based, HCT116 PTEN knockout, dose response (AID 1047); type: functional;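 further: HCT116 colon tumor cells with PTEN knocked out; cells exposed to compound for 60 hours before readout; potency for loss of cell viability measured by luminescence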
[8] = target: T4, Ubiquitin-conjugating enzyme E2 N (Homo sapiens, UniProt P61088); type: functional;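 further: Dose-response confirmation in a TR-FRET assay detecting UBC13-driven polyubiquitin chain formation, inhibition measured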
T4 sequence (P61088 whole entry): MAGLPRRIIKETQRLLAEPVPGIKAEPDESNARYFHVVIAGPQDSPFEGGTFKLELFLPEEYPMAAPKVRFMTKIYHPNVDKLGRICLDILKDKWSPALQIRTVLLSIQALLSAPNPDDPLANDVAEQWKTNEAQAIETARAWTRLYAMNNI

[9] = target: T5, Heat shock factor protein 1 (Mus musculus, UniProt P38532); test: decrease of HSF1-responsive luciferase luminescence – cell-based, NIH3T3, dose retest, confirmation (AID 2382); type: functional;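 further: NIH3T3 fibroblasts with HSF1-driven luciferase reporter stressed by proteasome inhibitor MG132; luminescence from HSF1-driven luciferase expression after 8 hours of MG132 stress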
T5 sequence (P38532 whole entry): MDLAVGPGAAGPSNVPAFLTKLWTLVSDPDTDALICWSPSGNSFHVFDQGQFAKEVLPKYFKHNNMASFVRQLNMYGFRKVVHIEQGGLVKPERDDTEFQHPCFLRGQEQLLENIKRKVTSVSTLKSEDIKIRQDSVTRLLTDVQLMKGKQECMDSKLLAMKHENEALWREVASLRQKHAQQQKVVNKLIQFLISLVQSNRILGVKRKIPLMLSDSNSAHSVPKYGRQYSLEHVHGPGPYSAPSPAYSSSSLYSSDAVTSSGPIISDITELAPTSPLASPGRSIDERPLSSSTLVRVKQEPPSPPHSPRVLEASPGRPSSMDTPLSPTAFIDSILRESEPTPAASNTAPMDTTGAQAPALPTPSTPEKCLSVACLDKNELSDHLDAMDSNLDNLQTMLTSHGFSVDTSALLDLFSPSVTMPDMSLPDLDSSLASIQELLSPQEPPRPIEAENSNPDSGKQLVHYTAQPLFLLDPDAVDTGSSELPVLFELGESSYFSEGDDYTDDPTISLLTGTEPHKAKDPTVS

[10] = target: T6, Microphthalmia-associated transcription factor (Homo sapiens, UniProt O75030); test: reducers of TRPM1 reporter luminescence, concentration series – cell-based, SK-MEL-5, cherry-picked, set 3, MITF inhibitor project, dose response (AID 493073); type: functional;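 further: SK-MEL-5 melanoma cells with luciferase driven by the MITF target TRPM1 promoter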
T6 sequence (O75030 whole entry): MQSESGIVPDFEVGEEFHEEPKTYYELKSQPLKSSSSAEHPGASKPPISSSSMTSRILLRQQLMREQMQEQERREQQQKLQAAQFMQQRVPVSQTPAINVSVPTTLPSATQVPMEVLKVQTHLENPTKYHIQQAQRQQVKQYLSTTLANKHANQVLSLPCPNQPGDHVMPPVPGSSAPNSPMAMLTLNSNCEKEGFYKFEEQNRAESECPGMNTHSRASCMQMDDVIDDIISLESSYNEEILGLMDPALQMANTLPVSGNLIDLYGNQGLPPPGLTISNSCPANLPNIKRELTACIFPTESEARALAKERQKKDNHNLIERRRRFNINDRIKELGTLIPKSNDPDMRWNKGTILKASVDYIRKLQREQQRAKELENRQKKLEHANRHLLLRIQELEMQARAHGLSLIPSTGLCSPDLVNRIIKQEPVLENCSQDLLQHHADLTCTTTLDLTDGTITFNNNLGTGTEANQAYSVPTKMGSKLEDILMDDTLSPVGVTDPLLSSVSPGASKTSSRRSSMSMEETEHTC

[11] = tested on: Streptococcus sp. 'group A'; test: Streptococcus pyogenes SK(-)GAS viability under kanamycin – luminescence, BacTiterGlo, confirmation, counter-screen for streptokinase expression inhibitor project, dose response (AID 1900); type: functional, organism-based
Streptokinase A = target: T7, Streptokinase A (Streptococcus pyogenes serotype M1, UniProt P10520); test: viability-normalized secreted streptokinase activity reduction – plasminogen activation absorbance, OD405, dose response (AID 1914); type: functional, Streptococcus pyogenes M1 GAS;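 further: secreted streptokinase activity via plasminogen activation per viability signal from cell pellet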
T7 sequence (P10520 whole entry): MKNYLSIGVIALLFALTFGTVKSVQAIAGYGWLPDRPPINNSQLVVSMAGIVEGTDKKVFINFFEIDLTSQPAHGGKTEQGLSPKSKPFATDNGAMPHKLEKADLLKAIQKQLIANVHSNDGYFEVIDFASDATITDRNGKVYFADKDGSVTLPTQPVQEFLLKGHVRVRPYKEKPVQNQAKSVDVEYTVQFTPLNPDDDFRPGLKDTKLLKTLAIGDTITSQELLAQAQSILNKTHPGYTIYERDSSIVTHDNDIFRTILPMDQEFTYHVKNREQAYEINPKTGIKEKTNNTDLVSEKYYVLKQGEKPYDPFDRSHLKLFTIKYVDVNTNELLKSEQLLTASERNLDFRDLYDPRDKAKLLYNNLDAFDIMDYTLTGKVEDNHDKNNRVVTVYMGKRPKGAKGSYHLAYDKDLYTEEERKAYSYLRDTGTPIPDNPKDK

Streptococcus = test: GAS UMAA2166 growth inhibition – luminescence, BacTiterGlo, counter-screen for streptokinase expression inhibitor project, dose response (AID 1915); type: functional, organism-based;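 further: potency for reduction of bacterial viability or growth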
[12] = Luminescence Cell-Based Dose Retest to Confirm Inhibitors of Cancer Stem Cells. [Related pubchem assays (depositor defined):AID2717, AID2721]; type: functional; conditions: Homo sapiens
INS1 = test: INS-1E survival protection against cytokine death – cell-based, luminescence, retest, dose response (AID 449756); type: functional; conditions: Rattus norvegicus;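 further: cell death triggered by IL-1 beta plus TNF-alpha plus IFN-gamma mixture; protective hits raise ATP signal compared with cytokine alone wells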
cells [13] = type: functional, cell-based
cells [14] = type: functional, cell-based; remark: listed apart in the source

T1 sequence (P49327 whole entry): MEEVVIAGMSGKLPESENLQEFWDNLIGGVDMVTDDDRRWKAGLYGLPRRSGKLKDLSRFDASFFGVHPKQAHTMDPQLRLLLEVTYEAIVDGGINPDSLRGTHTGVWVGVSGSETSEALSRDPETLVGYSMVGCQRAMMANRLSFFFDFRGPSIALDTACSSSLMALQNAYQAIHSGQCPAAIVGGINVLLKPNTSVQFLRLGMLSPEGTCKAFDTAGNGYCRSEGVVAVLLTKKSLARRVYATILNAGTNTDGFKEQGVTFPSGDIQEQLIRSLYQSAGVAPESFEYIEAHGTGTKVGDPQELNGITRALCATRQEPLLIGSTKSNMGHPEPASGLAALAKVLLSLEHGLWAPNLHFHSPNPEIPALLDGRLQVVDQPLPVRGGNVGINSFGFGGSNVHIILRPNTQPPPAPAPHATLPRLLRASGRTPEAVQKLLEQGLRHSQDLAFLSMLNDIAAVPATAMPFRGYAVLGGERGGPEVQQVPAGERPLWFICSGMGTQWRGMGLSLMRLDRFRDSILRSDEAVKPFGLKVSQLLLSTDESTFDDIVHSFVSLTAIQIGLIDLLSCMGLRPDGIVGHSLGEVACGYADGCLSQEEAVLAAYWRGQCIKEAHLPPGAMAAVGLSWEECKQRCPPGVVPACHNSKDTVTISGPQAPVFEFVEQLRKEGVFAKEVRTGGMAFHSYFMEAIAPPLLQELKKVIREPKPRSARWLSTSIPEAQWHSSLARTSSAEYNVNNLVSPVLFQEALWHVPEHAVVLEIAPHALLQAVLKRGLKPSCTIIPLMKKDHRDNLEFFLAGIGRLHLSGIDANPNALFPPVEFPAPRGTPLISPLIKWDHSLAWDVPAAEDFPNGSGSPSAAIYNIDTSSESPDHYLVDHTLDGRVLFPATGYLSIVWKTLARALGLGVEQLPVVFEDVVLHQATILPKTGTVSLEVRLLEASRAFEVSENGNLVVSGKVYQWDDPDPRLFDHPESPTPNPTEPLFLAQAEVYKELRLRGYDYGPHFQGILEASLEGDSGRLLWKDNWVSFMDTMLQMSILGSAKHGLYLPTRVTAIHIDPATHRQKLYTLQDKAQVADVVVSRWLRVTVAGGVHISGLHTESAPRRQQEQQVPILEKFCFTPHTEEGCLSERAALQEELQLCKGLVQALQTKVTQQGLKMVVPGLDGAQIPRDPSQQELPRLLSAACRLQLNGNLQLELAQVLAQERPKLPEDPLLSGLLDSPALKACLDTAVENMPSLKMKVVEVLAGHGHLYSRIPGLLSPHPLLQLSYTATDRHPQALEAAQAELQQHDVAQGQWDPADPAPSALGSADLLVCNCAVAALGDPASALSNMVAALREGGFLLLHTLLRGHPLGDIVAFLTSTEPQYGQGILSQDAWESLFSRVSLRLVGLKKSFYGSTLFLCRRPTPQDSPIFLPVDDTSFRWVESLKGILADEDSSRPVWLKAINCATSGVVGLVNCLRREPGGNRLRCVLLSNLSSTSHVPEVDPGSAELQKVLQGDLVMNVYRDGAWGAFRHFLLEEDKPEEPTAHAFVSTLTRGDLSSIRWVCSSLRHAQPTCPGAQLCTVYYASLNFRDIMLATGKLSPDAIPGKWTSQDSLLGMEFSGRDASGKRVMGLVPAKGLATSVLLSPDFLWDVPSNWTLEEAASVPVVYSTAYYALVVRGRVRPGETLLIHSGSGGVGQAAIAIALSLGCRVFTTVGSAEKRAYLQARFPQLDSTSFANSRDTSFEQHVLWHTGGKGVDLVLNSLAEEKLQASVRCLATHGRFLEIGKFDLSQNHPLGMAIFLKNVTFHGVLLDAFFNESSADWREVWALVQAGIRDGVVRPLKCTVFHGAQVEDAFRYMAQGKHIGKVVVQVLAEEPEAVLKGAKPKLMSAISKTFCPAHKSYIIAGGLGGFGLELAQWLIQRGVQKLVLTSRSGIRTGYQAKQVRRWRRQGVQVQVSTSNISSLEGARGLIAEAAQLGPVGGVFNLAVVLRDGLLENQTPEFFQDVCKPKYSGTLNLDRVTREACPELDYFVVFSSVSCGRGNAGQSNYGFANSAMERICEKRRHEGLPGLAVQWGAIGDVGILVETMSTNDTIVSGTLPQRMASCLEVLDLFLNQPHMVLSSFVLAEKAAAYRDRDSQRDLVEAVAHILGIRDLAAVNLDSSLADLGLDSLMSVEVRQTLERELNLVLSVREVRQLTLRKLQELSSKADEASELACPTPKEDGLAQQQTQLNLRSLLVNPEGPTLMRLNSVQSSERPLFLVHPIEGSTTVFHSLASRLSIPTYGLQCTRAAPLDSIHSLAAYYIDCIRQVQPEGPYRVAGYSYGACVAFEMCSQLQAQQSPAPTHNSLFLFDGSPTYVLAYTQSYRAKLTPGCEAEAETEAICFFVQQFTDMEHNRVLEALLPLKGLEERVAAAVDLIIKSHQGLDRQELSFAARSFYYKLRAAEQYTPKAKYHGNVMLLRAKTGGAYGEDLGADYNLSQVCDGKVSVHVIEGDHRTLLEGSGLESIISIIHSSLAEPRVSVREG

Cc1nn(Cc2ccc([N+](=O)[O-])cc2)c(=O)n1-c1cccc(Cl)c1
IC50 (Fatty acid synthase [1]): 8.36 µM (active)
IC50 (Fatty acid synthase [2]): 5.54 µM (active)

CC1=C(C(=O)OCc2ccccc2)C(/C=C/c2ccccc2)NC(S)=N1 (stereo not given)
AC50 [3]: 4.08 µM (active)

CCS(=O)(=O)C1=NSC2=NC(=O)/C(=C\c3ccc(OS(=O)(=O)c4ccccc4)c(OC)c3)C(=N)N21
IC50 [4]: 13.5 µM (active)

O=C(O)c1ccc(-c2nc(-c3ccccc3)c(-c3ccccc3)[nH]2)cc1
AC50 [5]: 92.3 µM (active)

CC(=O)c1cc(C#N)c(SCCC(C)C)nc1C
IC50 (Fatty acid synthase [1]): 9.54 µM (active)
IC50 (Fatty acid synthase [2]): 9.77 µM (active)

Cc1cc(C2N=C(N)Nc3nc4ccccc4n32)c(C)n1-c1ccccc1Cl (stereo not given)
EC50 [6]: 23.4 µM (active)
EC50 [7]: 30.1 µM (active)
IC50 [8]: > 20 µM (inactive)

Cn1c(SCC(=O)Nc2ncc(C(F)(F)F)cc2Cl)nnc1-c1ccc(Cl)cc1
IC50 (Fatty acid synthase [1]): 0.572 µM (active)
EC50 [9]: > 195 µM (not active)
IC50 (Fatty acid synthase [2]): 0.551 µM (active)

COc1ccc([N+](=O)[O-])cc1NC(=O)N(C)Cc1ccco1
IC50 (Fatty acid synthase [1]): 21.1 µM (inactive)
IC50 (Fatty acid synthase [2]): 17.7 µM (active)

COc1ccc(C2=CC3=C(Br)C(=O)C(C)(O)C(=O)C3=CO2)cc1 (stereo not given)
AC50 [3]: 2.62 µM (active)

Cc1cccc(NC(=O)COC(=O)c2cccc(S(=O)(=O)N3CCCCCC3)c2)c1
AC50 [5]: 7.43 µM (active)

CCN(CCO)C1CC(=O)N(c2ccccc2C)C1=O (stereo not given)
AC50 [3]: 2.14 µM (active)

COC(=O)CSc1nnc(-c2ccc(NS(=O)(=O)c3ccccc3)cc2)o1
IC50 [4]: 12 µM (active)

CCN(CC)S(=O)(=O)c1cccc(C(=O)NCC(c2ccccc2)N(C)C)c1 (stereo not given)
AC50 [3]: 3.2 µM (active)

COc1ccccc1/C=C1\SC(=O)N(CC(=O)NCCCn2ccnc2)C1=O
IC50 [4]: 19.1 µM (active)

CCN1c2ccccc2NC2C1C(C(C)=O)C(=O)N2c1ccc(Cl)cc1 (stereo not given)
AC50 [10]: 12.7 µM (active)

Cc1cccc(NC(=O)CN2C(=O)N/C(=C/c3ccc(-c4cccc(C(=O)O)c4C)o3)C2=O)c1
AC50 [5]: 72.3 µM (active)

S=C(NCc1ccccc1)NCc1cccc(CNC(=S)NCc2ccccc2)c1
AC50 [5]: 27.3 µM (active)

Cc1ccc(C(=O)N2CCN(c3ccccc3)CC2)cc1S(=O)(=O)N1CCCC1
IC50 [4]: 11 µM (active)

COc1ccc(OCCCC(=O)Nc2ccc(S(=O)(=O)N3CCOCC3)cc2)cc1
IC50 [8]: > 20 µM (inactive)

CC(=O)NC(C)c1cc(Cl)c2ccccc2c1O (stereo not given)
IC50 [8]: > 20 µM (inactive)

Cc1ccc(C(C)C)c(OCCOCCN2CCNCC2)c1
IC50 [4]: 13.8 µM (active)

O=C(CCC1CCCC1)NCCCNC(=O)CCC1CCCC1
IC50 [4]: 15.8 µM (active)

C=CC(n1cncn1)C(O)(c1ccccc1)c1ccccc1 (stereo not given)
AC50 [3]: 0.826 µM (active)

Cc1ccc(C(=O)NCC(=O)OCc2nnc(-c3ccc([N+](=O)[O-])cc3)o2)cc1
IC50 (Fatty acid synthase [1]): 5.56 µM (active)
IC50 (Fatty acid synthase [2]): 4.73 µM (active)

O=C(N/N=C/c1ccccn1)c1cc(-c2ccccc2Cl)n[nH]1
IC50 [8]: > 20 µM (inactive)

Cc1cccc(C)c1/N=C1\C(Cl)=C(O)OC1OC(=O)c1ccccc1 (stereo not given)
IC50 (Fatty acid synthase [1]): 4.54 µM (active)
IC50 (Fatty acid synthase [2]): 4.46 µM (active)

Cc1ccc(N/N=C(\C=O)C(=O)c2ccc(Cl)cc2)cc1
EC50 [11]: 8.86 µM (active)
EC50 (Streptokinase A): > 50 µM (not active)
EC50 [9]: 4.78 µM (active)
AC50 [3]: 5.6 µM (active)
EC50 (Streptococcus): 14.8 µM (active)

COc1ccc2nc(C)cc(SCC(=O)N/N=C/c3ccc(O)cc3O)c2c1
AC50 [12]: 2.74 µM (active)
AC50 (INS1): 2.65 µM (active)
EC50 (cells [13]): 12.9 µM (active)
AC50 [10]: 10.1 µM (active)
EC50 (cells [14]): > 350 µM (not active)

Reference: ChEMBL document CHEMBL1201862, “PubChem BioAssay data set” (2004)
